From patent publication US20130059866A1, “NOVEL PIPERIDINO-DIHYDROTHIENOPYRIMIDINE SULFOXIDES AND THEIR USE FOR TREATING COPD AND ASTHMA” (BOEHRINGER INGELHEIM INTERNATIONAL GMBH, priority 2011, published 2013)
pIC50: −log10 of the molar value.

How the values were obtained:
PDE4B = target: T1, PDE4B (Homo sapiens, UniProt Q07343); experiment: PDE4B Scintillation Proximity (SPA) Assay; format: biochemical; conditions: PDE4B active site fragment amino acids 152-484, [3H]cAMP, 30° C., one hour; read-out: Experimentally determined IC50-value for PDE4B inhibition
T1 construct: active site fragment comprising the amino acids 152-484
T1 sequence (Q07343 324-656): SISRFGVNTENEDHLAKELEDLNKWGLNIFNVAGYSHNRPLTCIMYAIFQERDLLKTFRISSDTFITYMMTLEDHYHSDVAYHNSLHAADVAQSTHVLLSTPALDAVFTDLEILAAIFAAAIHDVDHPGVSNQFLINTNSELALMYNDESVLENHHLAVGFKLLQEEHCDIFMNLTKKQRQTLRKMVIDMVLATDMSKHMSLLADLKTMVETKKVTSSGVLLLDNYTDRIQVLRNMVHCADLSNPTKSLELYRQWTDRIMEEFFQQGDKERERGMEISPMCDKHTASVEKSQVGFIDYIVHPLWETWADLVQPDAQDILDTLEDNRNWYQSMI
Description: The IC50-values of the compounds of the invention (Example Compounds 1 and 2) and of the above-mentioned prior art compounds A to D with respect to their PDE4B-inhibiting ability have been determined with a Scintillation Proximity (SPA) Assay (GE Healthcare, No. TRKQ7090).
The Scintillation Proximity (SPA) Assay is based on the detection of the different affinities of the cyclic 3′-5′-adenosine monophosphate (cAMP, low affinity) and the linear 5′-adenosine monophosphate (AMP, high affinity) to yttrium-silicate-scintilator beads. The cAMP-specific phosphodiesterase (PDE) PDE4B cleaves the 3′-phosphodiester bond of the tritium-labelled-[^3H]cAMP to the [^3H]5′-AMP. This [^3H]5′-AMP associates with the scintillator beads because of their higher affinity and causes scintillations (light flashes) which can be measured in a Wallac Microbeta Scintillation Counter.
10 μl of a [^3H]cAMP-solution (0.05 μCi in H2O, 10-30 Ci/mmol) are added to 89 μl of a PDE4B-enzyme-solution (active site fragment comprising the amino acids 152-484; 0.15-0.18 ng) in assay buffer (50 mM Tris HCl pH 7.5; 8.3 mM MgCl2; 1.7 mM ethylene glycol tetraacetic acid (EGTA); 0.25 mg/ml bovine serum albumin (BSA)) and this mixture is incubated at 30° C. for one hour
a) without the compound to be tested (in the presence of 1 μl dimethylsulfoxide (DMSO), corresponding to 1% DMSO) and b) in the presence of the compound to be tested in a concentration of 125 μM, 25 μM, 5 μM, 1 μM, 200 nM, 40 nM, 8 nM, 1.6 nM, 0.32 nM, 0.064 nM, 0.0128 nM (dilution series in 5er-steps beginning from 125 μM until 0.0128 nM, in the presence of 1% DMSO).
After this incubation the reaction is stopped by the addition of 50 μl of bead-solution (500 mg beads/35 ml H2O, 18 mM zinc sulfate). In the following 45 minutes the beads have the opportunity to form a sediment. After that the scintillations are measured in the scintillation counter. If the tested compound is able to inhibit the enzymatic activity of the PDE4B-enzyme, less [^3H]AMP depending on the concentration of the tested compound is produced and less scintillations are measurable. […] The IC50-value stands for the compound concentration at which the PDE4B enzyme activity is inhibited to a half maximal value. Therefore the lower the IC50-value is the better is the PDE4B inhibition.

[1] = tested on: LPS-induced neutrophil influx into bronchoalveolar lavage fluid of male Wistar rats; experiment: Inhibition of LPS-induced neutrophil influx into bronchoalveolar lavage fluid (LPS-induced lung inflammation model); format: in vivo; conditions: ED50 found in efficacy studies in the rat
Description: The anti-inflammatory activity of Examples 1 and 2 and of Prior art compounds A and D was assessed in an in vivo LPS-induced lung inflammation model in rats.
As a measure of the pharmacological potency of the above mentioned compounds the half-maximal effective dose (ED50) in regard to the inhibition of lipopolysaccharide-induced (LPS-induced) neutrophil influx into the bronchoalveolar lavage fluid (BALF) was determined by assessing the dose response relationship. Bacterial endotoxins (lipopolysaccharides [LPS]) are components of the outer bacterial cell membrane which play an important role in the pathogenesis of infections with gram-negative bacteria. It is known that inhalation of such aerosolized LPS induces a dose-dependent increase in neutrophils to lung tissues and airspaces in rats which may be detected by analyzing the amount of neutrophils in the bronchoalveolar lavage fluid (BALF). […]
Determination of neutrophil content of the BALF was performed using an ADVIA 120 blood hemacytometer (Bayer Diagnostics). Neutrophil data were normalised (Positive Control (=LPS treatment alone)=100%, Negative Control (no LPS treatment, administration of “vehicle only”)=0%) and expressed as percent of LPS control. The ED50 was calculated using a nonlinear fit (with the Graph Pad Prism software and a sigmoidal dose response fit). […]

conscious rats [2] = experiment: Gastric emptying in conscious rats (barium sulfate test meal); format: in vivo, rat
Description: (§1) In order to evaluate whether the compounds of the present invention lead to gastrointestinal side effects the compounds of the invention have been administered to rats 30 minutes before the rats were fed with a test meal comprising barium sulfate. After that it was tested whether gastric emptying and/or gastrointestinal transit in these rats was affected by the presence of these compounds.
The effects of the compounds Example 1 and Example 2 on gastric emptying and gastrointestinal transit in conscious rats has been investigated as described below. Wistar rats of both sexes weighing 130-160 g (ages: male 7 wk, female 8 wk) were used. The animals are obtained from an approved local distributor, a minimum of four days quarantine is required before use, during which time the animals are maintained under routine animal care procedures. Groups of up to 5 animals are housed in cages in a room with controlled temperature and humidity and a light/dark cycle with the lights on from 6 a.m. to 6 p.m. The animals have access to normal rodent chow and water ad libitum. The animals are transported to the laboratory on the day of experimentation. Gastric emptying as well as small intestinal propulsion are determined using a barium sulfate test meal.
Five rats Crl:WI(Han) of each sex (n=10) were used. The animals were deprived of food 17 h prior to the experiment but allowed free access to water. The drug under investigation (drug was suspended to the concentration of 10 ml/kg body weight in 0.5% Natrosol solution) or the negative control (vehicle alone was given 10 ml/kg body weight) was administered 30 min (p.o.) before the test meal at doses calculated to be 3-fold, 10-fold or 30-fold the ED50 found in efficacy studies in the rat.
The test meal (suspension of 7.5 g barium sulfate in 10 ml salt-free water) is given orally by gavage at a dose of 2 ml/100 g body weight. Thirty minutes after the administration of the test meal the animals were killed in deep isoflurane anaesthesia by cervical dislocation. The stomach and the intestine were then exposed by laparatomy and removed.
The removed stomach was weighed, then incised, the contents removed and the empty stomach is weighed again.
The gastric content was calculated from the weight difference between the filled and empty stomach and normalized to 100 g body weight. Thus, an increase in weight difference indicated an impaired gastric emptying, whereas a decrease in weight difference indicated an enhanced gastric emptying.
Data are expressed as mean±standard deviation (SD). For each dose, comparisons were performed using an analysis of variance (ANOVA) and a post hoc Dunnett test to compare the various groups to the controls when the ANOVA was significant. p<0.05 was considered significant.

conscious rats [3] = experiment: Gastrointestinal (intestinal) transit in conscious rats (barium sulfate test meal); format: in vivo, rat; conditions: all tested doses up to the 30-fold ED50 dose p.o.
Description: as §1
The effects of the compounds Example 1 and Example 2 on gastric emptying and gastrointestinal transit in conscious rats has been investigated as described below. Wistar rats of both sexes weighing 130-160 g (ages: male 7 wk, female 8 wk) were used. […] Gastric emptying as well as small intestinal propulsion are determined using a barium sulfate test meal. […]
The length of gut traversed with barium sulfate in relation to the whole length of the gut is determined by direct measurements using a ruler.
The length of gut traversed with barium sulphate (as judged by visual inspection) in relation to the whole length of the gut (from the pylorus to the rectum) is determined by direct measurements using a ruler.
Intestinal transit is calculated as the percentage movement of barium sulphate in the intestine in relation to the whole length of the gut. […]
Data are expressed as mean±standard deviation (SD). […]

SMILES	pIC50 (PDE4B)	ED50 as restated in the dose table of the gastrointestinal study [1]	intestinal transit vs negative control (conscious rats [3])	other results
[O-][S+]1CCc2nc(N3CCC(c4cccc(Cl)c4)CC3)nc(NC3(CO)CC3)c21 (centres unmarked) [Prior art compound D]	8.14	–	–	–
[O-][S+]1CCc2nc(N3CCC(c4ccncc4)CC3)nc(NC3(CO)CC3)c21 (centres unmarked) [Prior art compound C]	7.36	–	–	–
[O-][S+]1CCc2nc(N3CCC(c4ccc(Cl)cc4)CC3)nc(NC3(CO)CCC3)c21 (single isomer, unassigned) [Example 1]	8.37	(ED50 = 0.31 mg/kg BW	no significant differences	gastric emptying vs negative control (conscious rats [2]; 3-fold ED50 dose p.o., 30 min before test meal): no relevant differences; gastric emptying vs negative control (conscious rats [2]; 10-fold ED50 dose p.o., 30 min before test meal): no relevant differences; gastric emptying vs negative control (weight difference per body weight) (conscious rats [2]; 30-fold ED50 dose p.o., 30 min before test meal): only a very moderate enhancement
[O-][S+]1CCc2nc(N3CCC(c4ccc(Cl)cc4)CC3)nc(NC3(CO)CC3)c21 (centres unmarked) [Prior art compound A]	8.48	–	–	–
[O-][S+]1CCc2nc(N3CCC(c4ncc(Cl)cn4)CC3)nc(NC3(CO)CCC3)c21 (single isomer, unassigned) [Example 2]	8.14	(ED50 = 0.1 mg/kg BW	no relevant differences	gastric emptying vs negative control (conscious rats [2]; all tested doses (3-, 10-, 30-fold ED50) p.o.): no relevant differences
[O-][S+]1CCc2nc(N3CCC(c4c[nH]cn4)CC3)nc(NC3(CO)CC3)c21 (centres unmarked) [Prior art compound B]	7.18	–	–	–
